Measurements: paper PMC4993479 (PLoS ONE, 2016)
Read-outs that look alike come from different tables or passages of the source.

Legend:
[1] = In vitro skin diffusion across human epidermis in Franz-type diffusion cells; assay type: in vitro ADME
Experimental: Full thickness human skin samples from patients (26–48 years old females) undergoing abdominoplasty at Perth (WA, Australia) hospitals were refrigerated immediately after surgery. Sampling was approved by the Human Research Ethics Committee of Curtin University and was conducted in compliance with the guidelines of the National Health and Medical Research Council of Australia. Epidermal sheets were obtained and stored as previously described. […] Two hundred μL samples of the receptor phase were withdrawn and replaced with an equal volume of fresh pre-warmed (37°C) 25:75 PG:PBS over an 8 h period and the content analysed by HPLC. […] Permeability coefficients (cm/h) were calculated.

[2] = Uptake/retention in the epidermis by solvent extraction and HPLC after the permeation experiment; conditions: human epidermis
Experimental: Briefly, the skin sections were placed in 500 μL methanol and vortexed for 2 min, then transferred to a second 500 μL methanol volume and vortexed for another 2 min. The skin sample was then placed in 1 mL propylene glycol for 1 h with agitation. After centrifuging each extract at 10,000 × g for 10 min, the resultant supernatants were diluted appropriately, quantified by HPLC, and the data combined to give total penetrant in the epidermal section.
Mass balance/recovery after the skin permeation experiments was determined by removing and retaining the donor solution, and washing the epidermal surface, donor and receptor compartments and retaining all washing solutions. The content of all solutions was analysed by HPLC following suitable dilution.

COX-2 = target: T1, COX-2 (Homo sapiens, UniProt P35354); assay: COX Fluorescent Inhibitor Screening Assay (COX-2 inhibition); assay type: biochemical; conditions: concentration range 0.000155–0.31 mM, 2 min incubation
T1 construct: purchased Cayman Chemical 700100
T1 sequence (P35354 18-604): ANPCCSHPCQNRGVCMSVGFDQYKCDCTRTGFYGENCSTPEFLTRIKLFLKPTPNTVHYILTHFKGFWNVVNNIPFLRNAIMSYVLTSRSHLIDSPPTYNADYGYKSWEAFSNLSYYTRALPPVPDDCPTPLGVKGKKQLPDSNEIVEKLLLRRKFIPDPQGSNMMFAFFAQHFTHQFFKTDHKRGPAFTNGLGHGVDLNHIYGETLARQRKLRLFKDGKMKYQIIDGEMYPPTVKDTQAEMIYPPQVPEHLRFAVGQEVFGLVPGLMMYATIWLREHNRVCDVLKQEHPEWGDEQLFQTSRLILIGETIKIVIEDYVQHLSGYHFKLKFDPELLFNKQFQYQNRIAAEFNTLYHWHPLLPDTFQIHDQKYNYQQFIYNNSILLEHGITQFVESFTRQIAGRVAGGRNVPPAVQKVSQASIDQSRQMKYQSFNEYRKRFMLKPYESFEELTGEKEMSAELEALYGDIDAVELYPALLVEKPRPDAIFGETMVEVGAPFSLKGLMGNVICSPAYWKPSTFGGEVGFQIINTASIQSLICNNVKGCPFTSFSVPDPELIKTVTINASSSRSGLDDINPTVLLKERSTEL

Row | Compound | Amount permeated (% of applied dose) [1] | Maximum amount permeated [1] | Amount extracted from the skin (% of applied dose) ([2]; applied dose 150 μg) | Amount extracted (skin distribution) ([2]; applied dose 150 μg in 25:75 PG:PBS, after 8 h permeation experiment) | steady state flux ([1]; human epidermis, 300 μL containing 150 μg diclofenac alone or as conjugate in 25:75 PG:PBS, 8 h) [μg/cm^2/h] | Maximum amount permeated ([1]; human epidermis, applied dose 150 μg in 300 μL 25:75 PG:PBS, 8 h) | Amount permeated (% of applied dose) ([1]; human epidermis, applied dose 150 μg, 8 h) | COX-2 inhibition (in words) (COX-2)
1 | CN1C(=O)[C@H](Cc2ccc(NC(=O)Cc3ccccc3Nc3c(Cl)cccc3Cl)cc2)NC(=O)[C@@H]1Cc1ccc2ccccc2c1 [DKP-diclofenac conjugate, DKP Phe(Diclofenac)-N-MeNal] | 4.00 % of applied dose | 6.01(±0.16) μg/cm^2 | – | – | – | – | – | –
2 | O=C(O)Cc1ccccc1Nc1c(Cl)cccc1Cl [Diclofenac, Diclofenac sodium] | – | – | 5.72 % of applied dose | 8.58(±1.50) μg | 0.12 | 0.91(±0.15) μg/cm^2 | 0.60 % of applied dose | –
3 | DKP Phe-N-MeNal | 4.33 % of applied dose | 6.50(±1.94) μg/cm^2 | – | – | – | – | – | did not demonstrate COX-2 inhibition
